According to patent US6534524B1, “Indazole compounds and pharmaceutical compositions for inhibiting protein kinases, and methods for their use” (Agouron Pharmaceuticals, Inc., priority 1999, dated 2003):
Read-outs that look alike come from different tables or passages of the source. Marks after values point to notes of the source that are not given here. One block for each compound: values may come before it.

Columns and labels:
[1] = system: human umbilical vein endothelial cells (HUVEC); assay: HUVEC proliferation assay (VEGF-stimulated, MTT); assay type: cell-based; settings: Homo sapiens, HUVEC; read-out: HUVEC IC50
[2] = Human liver microsome (HLM) assay; assay type: in vitro ADME; settings: human liver microsomes, 5 μM test compound
Description: Human Liver Microsome (HLM) Assay Compound metabolism in human liver microsomes was measured by LC-MS analytical assay procedures as follows. […] (3 tubes per test compound-triplicate). […] The samples were then transferred to separate polypropylene microcentrifuge tubes and centrifuged at 14000 g for 10 min. (Fisher Micro […] M0017580). For each replicate (#1-3) at each timepoint (0 and 2 h), an aliquot sample of each test compound was combined into a single HPLC vial insert (6 total samples) for LC-MS analysis, which is described below.

[3] = Determination of inhibitor concentration in mouse plasma after intraperitoneal and oral dosing; assay type: in vivo
In short: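 Plasma levels quantified by HPLC or LC-MS using a standard curve prepared in mouse plasma, following ethyl acetate extraction with internal standard and sodium hydroxide. Sampling at 0.5, 1, 4 h (ocular bleed) and 7 h (cardiac puncture) after oral or intraperitoneal dosing.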

[4] = target: unphosphorylated VEGF-R2Δ50 (FLVK) (Homo sapiens, UniProt P35968, DEL940-989/E990V); assay: VEGF-R2 coupled spectrophotometric assay, unphosphorylated VEGF-R2Δ50 (FLVK); settings: FLVK Ki, Table 1
unphosphorylated VEGF-R2Δ50 (FLVK), sequence (P35968 with tags, fused parts or gaps DEL940-989/E990V limits assumed): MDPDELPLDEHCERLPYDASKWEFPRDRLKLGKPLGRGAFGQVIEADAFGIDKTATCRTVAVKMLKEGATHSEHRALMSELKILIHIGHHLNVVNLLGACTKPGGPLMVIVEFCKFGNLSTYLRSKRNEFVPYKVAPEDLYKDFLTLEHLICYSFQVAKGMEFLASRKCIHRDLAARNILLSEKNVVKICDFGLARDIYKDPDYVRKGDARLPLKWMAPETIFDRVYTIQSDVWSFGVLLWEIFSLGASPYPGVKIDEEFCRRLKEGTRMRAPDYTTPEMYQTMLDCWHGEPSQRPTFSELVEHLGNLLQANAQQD

[5] = IP, 25 mg/kg, vehicle PEG400:H2O pH 2.3 30:70
[6] = PO, 50 mg/kg, vehicle PEG400:H2O pH 2.3 30:70
[7] = female, IP, 25 mg/kg, vehicle PEG400:H2O pH 2.3 30:70, read-out: Cmin (7 hr conc.)
[8] = female, PO, 50 mg/kg, vehicle PEG400:H2O pH 2.3 30:70, read-out: Cmin (7 hr conc.)
[9] = IP, 25 mg/kg, vehicle PEG400:H2O pH 2.3 60:40
[10] = PO, 50 mg/kg, vehicle PEG400:H2O pH 2.3 60:40
[11] = female, IP, 25 mg/kg, vehicle PEG400:H2O pH 2.3 60:40, read-out: Cmin (7 hr conc.)
[12] = female, PO, 50 mg/kg, vehicle PEG400:H2O pH 2.3 60:40, read-out: Cmin (7 hr conc.)
[13] = PO, 25 mg/kg, vehicle PEG400:H2O pH 2.3 30:70
[14] = female, PO, 25 mg/kg, vehicle PEG400:H2O pH 2.3 30:70, read-out: Cmin (7 hr conc.)

Structure (SMILES): C[C@@H]1C[C@H]1C(=O)Nc1cccc(C(=O)c2ccc3c(/C=C/c4ccccn4)n[nH]c3c2)c1 (racemic) [Example 41(h), 6-[3-((2-RS-trans-Methylcyclopropyl)carboxamido)benzoyl]-3-E-[2-(pyridin-2-yl)ethenyl]-1H-indazole]
IC50 [1]: 2000 pM
% remain (HLM, 2 h) [2]: 8%
AUClast [3, 5]: 26911 ng·h/mL
Cmax [3, 5]: 16005 ng/mL
plasma half-life (T1/2) [3, 5]: 1.2 h
AUClast [3, 6]: 4677 ng·h/mL
Cmax [3, 6]: 4080 ng/mL
plasma half-life (T1/2) [3, 6]: 0.7 h
concentration at 7 h [3, 7]: 300 ng/mL
concentration at 7 h [3, 8]: 7 ng/mL

Structure (SMILES): O=C(Nc1cccc(Oc2ccc3c(/C=C/c4ccc(Cl)cc4)n[nH]c3c2)c1)c1ccccc1 [Example 6(a), N-(3-{3-[2-(4-Chloro-phenyl)-vinyl]-1H-indazol-6-yloxy}-phenyl)-benzamide]
% remain (HLM, 2 h) [2]: 69* %
Ki [4]: 740 pM

Structure (SMILES): Cc1cnc(C(=O)Nc2cccc(N(C)c3ccc4c(/C=C/c5ccccc5)n[nH]c4c3)c2)s1 [Example 12(d), 5-Methyl-thiazole-2-carboxylic Acid {3-[Methyl-(3-styryl-1H-indazol-6-yl)-amino]-phenyl}-amide]
% remain (HLM, 2 h) [2]: 51%
Ki [4]: 390 pM

Structure (SMILES): O=C(Nc1cccc(Nc2ccc3c(/C=C/c4ccccc4)n[nH]c3c2)c1)c1ccccc1 [Example 13, N-[3-(3-Styryl-1H-indazol-6-ylamino)-phenyl]-benzamide]
% remain (HLM, 2 h) [2]: 69%
Ki [4]: 1300 pM

Structure (SMILES): CN(c1cccc(NC(=O)c2ccccc2)c1)c1ccc2c(/C=C/c3ccc4c(c3)OCO4)n[nH]c2c1 [Example 16(a), N-(3-{[3-(2Benzo[1,3]dioxol-5-yl-vinyl)-1H-indazol-6-yl]-methyl-amino}-phenyl)-benzanide]
% remain (HLM, 2 h) [2]: 7* %
Ki [4]: 80 pM

Structure (SMILES): Cc1cccc(C(=O)Nc2cccc(N(C)c3ccc4c(/C=C/c5ccc6c(c5)OCO6)n[nH]c4c3)c2)c1 [Example 16(b), N-(3-{[3-(2-Benzo[1,3]dioxol-5-yl-vinyl)-1H-indazol-6-yl]-methyl-amino}-phenyl)-3-methyl-benzamide]
% remain (HLM, 2 h) [2]: 50%
Ki [4]: 340 pM

Structure (SMILES): Cc1cnc(C(=O)Nc2cccc(C(=O)c3ccc4c(/C=C/c5ccccc5)n[nH]c4c3)c2)s1 [Example 19(d), 5-Methyl-thiazole-2-carboxylic Acid[3-(3-styryl-1H-indazole-6-carbonyl)-phenyl]-amide]
% remain (HLM, 2 h) [2]: 36%
Ki [4]: 720 pM

Structure (SMILES): O=C(c1cccc(NC(=O)c2cccc3[nH]ccc23)c1)c1ccc2c(/C=C/c3ccccc3)n[nH]c2c1 [Example 19(f), 6-[3-(Indol-4-ylcarboxamido)benzoyl]-3-E-styryl-1H-indazole]
% remain (HLM, 2 h) [2]: 98%
Ki [4]: 180 pM

Structure (SMILES): O=C(Nc1cccc(C(=O)c2ccc3c(/C=C/c4ccccc4)n[nH]c3c2)c1)c1ccncc1 [Example 19(j), 6-[3-(Pyridin-4-ylcarboxamido)benzoyl]-3-E-styryl-1H-indazole]
% remain (HLM, 2 h) [2]: 66%
AUClast [3, 9]: 23205 ng·h/mL
Cmax [3, 9]: 5764 ng/mL
plasma half-life (T1/2) [3, 9]: 1.6 h
AUClast [3, 10]: 5889 ng·h/mL
Cmax [3, 10]: 1937 ng/mL
plasma half-life (T1/2) [3, 10]: 1.2 h
concentration at 7 h [3, 11]: 456 ng/mL
concentration at 7 h [3, 12]: 63 ng/mL
Ki [4]: 330 pM

Structure (SMILES): O=C(c1cccc(NC(=O)c2cccc(Cl)n2)c1)c1ccc2c(/C=C/c3ccccc3)n[nH]c2c1 [Example 19(m), 6-[3-(6-Chloropyridin-2-ylcarboxamido)benzoyl]-3-E-styryl-1H-indazole]
% remain (HLM, 2 h) [2]: 61%
Ki [4]: 680 pM

Structure (SMILES): O=C(Nc1cccc(Oc2ccc3c(/C=C/c4cccs4)n[nH]c3c2)c1)c1ccccc1 [Example 30(a), 6-[3-Benzamidophenoxy]-3-E-[2-(thien-2-yl)ethenyl]-1H-indazole]
% remain (HLM, 2 h) [2]: 64%
Ki [4]: 1700 pM

Structure (SMILES): O=C(Nc1cccc(Oc2ccc3c(/C=C/c4ccco4)n[nH]c3c2)c1)c1ccccc1 [Example 30(c), 6-[3-Benzamidophenoxy]-3-E-[2-(fur-2-yl)ethenyl]-1H-indazole]
% remain (HLM, 2 h) [2]: 54%
Ki [4]: 830 pM

Structure (SMILES): O=C(Nc1cccc(Oc2ccc3c(/C=C/c4ccccn4)n[nH]c3c2)c1)c1ccccc1 [Example 31(a), 6-[3-Benzamidophenoxy]-3-E-[2-(pyridin-2-yl)ethenyl]-1H-indazole]
% remain (HLM, 2 h) [2]: 58%
AUClast [3, 5]: 47538 ng·h/mL
Cmax [3, 5]: 13018 ng/mL
plasma half-life (T1/2) [3, 5]: 2.4 h
AUClast [3, 6]: 40863 ng·h/mL
Cmax [3, 6]: 14499 ng/mL
plasma half-life (T1/2) [3, 6]: 1.6 h
concentration at 7 h [3, 7]: 1910 ng/mL
concentration at 7 h [3, 8]: 834 ng/mL
Ki [4]: 290 pM

Structure (SMILES): Cn1ccnc1C(=O)Nc1cccc(Oc2ccc3c(/C=C/c4ccccn4)n[nH]c3c2)c1 [Example 31(e), 6-[3-((1-Methylimidazol-2-yl)carboxaniido)phenoxy]-3-E-[2-(pyridin-2-yl)ethenyl]-1H-indazole]
% remain (HLM, 2 h) [2]: 49%
plasma half-life (T1/2) [3, 13]: 13.1 h
AUC(0-t) ([3]; female, PO, 25 mg/kg, vehicle PEG400:H2O pH 2.3 30:70): > 30300 ng·h/mL
concentration at 7 h [3, 14]: 2950 ng/mL
Ki [4]: 20 pM

Structure (SMILES): O=C(Nc1ccccc1)c1ccccc1Sc1ccc2c(/C=C/c3ccccn3)n[nH]c2c1 [Example 33(c), 6-[2-(Phenylcarbamoyl)phenylsulfanyl]-3-E-[2-(pyridin-2-yl)ethenyl]-1H-indazole]
% remain (HLM, 2 h) [2]: 16%
AUClast [3, 5]: 697 ng·h/mL
Cmax [3, 5]: 505 ng/mL
plasma half-life (T1/2) [3, 5]: 1.2 h
AUClast [3, 6]: 183 ng·h/mL
Cmax [3, 6]: 94 ng/mL
plasma half-life (T1/2) [3, 6]: 3.0 h
concentration at 7 h [3, 7]: 7 ng/mL
concentration at 7 h [3, 8]: 5 ng/mL
Ki [4]: 280 pM

Structure (SMILES): O=C(NC1CC1)c1ccccc1Sc1ccc2c(/C=C/c3ccccn3)n[nH]c2c1 [Example 33(e), 6-[2-(Cyclopropylcarbamoyl)phenylsulfanyl]-3-E-[2-(pyridin-2-yl)ethenyl]-1H-1H-indazole]
% remain (HLM, 2 h) [2]: 54%
AUClast [3, 5]: 14323 ng·h/mL
plasma half-life (T1/2) [3, 5]: 1.0 h
AUClast [3, 6]: 13290 ng·h/mL
plasma half-life (T1/2) [3, 6]: 0.7 h
concentration at 7 h [3, 7]: 94 ng/mL
concentration at 7 h [3, 8]: 12 ng/mL
Ki [4]: 1700 pM

Structure (SMILES): O=C(NCC(F)(F)F)c1ccccc1Sc1ccc2c(/C=C/c3ccccn3)n[nH]c2c1 [Example 33(f), 6-[2-(2,2,2-Trifluoroethylcarbamoyl)phenylsulfanyl]-3-E-[2-(pyridin-2-yl)ethenyl]-1H-indazole]
% remain (HLM, 2 h) [2]: 31%
AUClast [3, 5]: 1887 ng·h/mL
plasma half-life (T1/2) [3, 5]: 2.4 h
AUClast [3, 6]: 1436 ng·h/mL
plasma half-life (T1/2) [3, 6]: 0.7 h
concentration at 7 h [3, 7]: 6 ng/mL
concentration at 7 h [3, 8]: 3 ng/mL
Ki [4]: 8000 pM

Structure (SMILES): O=C(NCc1cccc(F)c1)c1ccccc1Sc1ccc2c(/C=C/c3ccccn3)n[nH]c2c1 [Example 35(ff)]
% remain (HLM, 2 h) [2]: 31%
AUC(0-t) ([3]; female, IP, 25 mg/kg, vehicle PEG400:H2O pH 2.3 30:70): > 6300 ng·h/mL
Cmax ([3]; female, IP, 25 mg/kg, vehicle PEG400:H2O pH 2.3 30:70, read-out: Cmax): > 4000 ng/mL
concentration at 7 h [3, 7]: 72 ng/mL
Ki [4]: 110 pM

Structure (SMILES): CC(=O)c1ccc(C(=O)Nc2cccc(C(=O)c3ccc4c(/C=C/c5ccccn5)n[nH]c4c3)c2)s1 [Example 41(e), 6-[3-((5-Acetylthien-2-yl)carboxamido)benzoyl]-3-E-[2-(pyridin-2-yl)ethenyl]-1H-indazole]
% remain (HLM, 2 h) [2]: 22%
AUClast [3, 9]: 4900 ng·h/mL
Cmax [3, 9]: 1154 ng/mL
plasma half-life (T1/2) [3, 9]: 1.6 h
AUClast [3, 10]: 302 ng·h/mL
Cmax [3, 10]: 113 ng/mL
plasma half-life (T1/2) [3, 10]: 1.6 h
concentration at 7 h [3, 11]: 301 ng/mL
concentration at 7 h [3, 12]: 7 ng/mL
Ki [4]: 220 pM

Structure (SMILES): Cc1cc(C(=O)Nc2cccc(C(=O)c3ccc4c(/C=C/c5ccccn5)n[nH]c4c3)c2)n[nH]1 [Example 41(g), 6-[3-((5-Methyl-1H-pyrazol-3-yl)carboxamido)benzoyl]-3-E-[2-(pyridin-2-yl)ethenyl]-1H-indazole]
% remain (HLM, 2 h) [2]: 52%
AUClast [3, 9]: 1925 ng·h/mL
plasma half-life (T1/2) [3, 9]: 0.3 h
AUClast [3, 10]: 508 ng·h/mL
plasma half-life (T1/2) [3, 10]: 0.7 h
concentration at 7 h [3, 11]: 0 ng/mL
concentration at 7 h [3, 12]: 1 ng/mL
Ki [4]: 100 pM

% remain (HLM, 2 h) [2]: 63%
AUClast [3, 13]: 11612 ng·h/mL
plasma half-life (T1/2) [3, 13]: 2.0 h
concentration at 7 h [3, 14]: 415 ng/mL
Structure (SMILES): Cc1cc(C(=O)Nc2cc(C(=O)c3ccc4c(/C=C/c5ccccn5)n[nH]c4c3)ccc2C)n(C(C)C)n1 [Example 41(kk), 6-[3-((1-Isopropyl-3-methyl-1H-pyrazol-5-yl)carboxamido)-4-methylbenzoyl]-3-E-[2-(pyridin-2-yl)ethenyl]-1H-indazole]
